Experimental data as given in ChEMBL document CHEMBL1145416, “Design, synthesis, and biological evaluation of pyrazinones containing novel P1 needles as inhibitors of TF/VIIa” (Bioorg Med Chem Lett, 2007).

Key:
[1] = biological target: Coagulation factor X (Homo sapiens, UniProt P00742); assay: Inhibition of factor 10a
[2] = biological target: T1, Coagulation factor VII (Homo sapiens, UniProt P08709); assay: Inhibition of factor 7a
T1 sequence (P08709 whole entry): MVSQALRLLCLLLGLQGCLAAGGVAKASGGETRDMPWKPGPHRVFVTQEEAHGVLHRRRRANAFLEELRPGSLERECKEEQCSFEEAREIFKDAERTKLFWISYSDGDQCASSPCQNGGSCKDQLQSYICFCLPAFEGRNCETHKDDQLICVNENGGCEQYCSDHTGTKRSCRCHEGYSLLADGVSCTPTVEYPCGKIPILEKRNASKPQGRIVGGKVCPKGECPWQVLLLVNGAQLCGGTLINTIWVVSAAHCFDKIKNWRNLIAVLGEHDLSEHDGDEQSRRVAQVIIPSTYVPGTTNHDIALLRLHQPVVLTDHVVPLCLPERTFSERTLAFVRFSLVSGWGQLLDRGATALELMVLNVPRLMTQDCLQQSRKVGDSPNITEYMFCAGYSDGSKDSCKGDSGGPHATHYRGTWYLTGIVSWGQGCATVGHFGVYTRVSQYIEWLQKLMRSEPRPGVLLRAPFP

[3] = biological target: Prothrombin (Homo sapiens, UniProt P00734); assay: Inhibition of factor 2a
[4] = biological target: Trypsin (Homo sapiens, UniProt P07477+P07478+P35030); assay: Inhibition of trypsin; type: protein assay

Sequence of Coagulation factor X (P00742 41-179 limits assumed): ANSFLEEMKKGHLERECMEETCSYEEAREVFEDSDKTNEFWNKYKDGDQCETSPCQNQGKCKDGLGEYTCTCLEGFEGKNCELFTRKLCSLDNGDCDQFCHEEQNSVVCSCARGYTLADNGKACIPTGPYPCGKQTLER
Sequence of Coagulation factor X (P00742 235-488 limits assumed): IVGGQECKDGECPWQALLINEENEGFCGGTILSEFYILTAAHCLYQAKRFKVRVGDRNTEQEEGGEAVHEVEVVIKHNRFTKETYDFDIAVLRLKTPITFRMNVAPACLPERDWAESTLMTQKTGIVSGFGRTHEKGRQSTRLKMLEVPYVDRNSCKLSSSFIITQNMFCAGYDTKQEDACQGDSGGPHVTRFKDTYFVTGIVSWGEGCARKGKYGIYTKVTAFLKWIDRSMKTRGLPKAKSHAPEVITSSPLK

| Compound | IC50 [1] | IC50 [2] | IC50 [3] | IC50 [4] |
| --- | --- | --- | --- | --- |
| N=C(N)c1ccc(CNC(=O)Cn2c(-c3cccc(N)c3)c(Cl)nc(NC3CCC3)c2=O)c(C(F)(F)F)c1 | > 30 µM | 0.79 µM | > 30 µM | 0.23 µM |
| Nc1cccc(-c2c(Cl)nc(NC3CCC3)c(=O)n2CC(=O)NCc2ccccc2)c1 | 0.04 µM | 0.02 µM | 10.6 µM |  |
| N=C(N)c1ccc(CNC(=O)Cn2c(-c3cccc(N)c3)c(Cl)nc(NC3CCC3)c2=O)cc1O | > 100 µM | 0.19 µM | > 100 µM | 7.55 µM |
| Nc1cccc(-c2c(Cl)nc(NC3CCC3)c(=O)n2CC(=O)NCCc2cnc(N)[nH]2)c1 | > 30 µM | > 30 µM | > 30 µM | 6.2 µM |
| N=C(N)c1ccc(CNC(=O)Cn2c(-c3cccc(N)c3)c(Cl)nc(NC3CCC3)c2=O)cc1F | > 30 µM |  | > 30 µM |  |
| Nc1cccc(-c2c(Cl)nc(NC3CCC3)c(=O)n2CC(=O)NCc2ccc3c(N)noc3c2)c1 | > 30 µM |  | > 30 µM | > 30 µM |
| Nc1cccc(-c2c(Cl)nc(NC3CCC3)c(=O)n2CC(=O)NCc2ccc3c(N)nccc3c2)c1 | > 30 µM | > 30 µM | > 30 µM | > 30 µM |
| N/N=C(/N)c1ccc(CNC(=O)Cn2c(-c3cccc(N)c3)c(Cl)nc(NC3CCC3)c2=O)cc1 | > 100 µM |  | > 100 µM |  |
| N=c1[nH][nH]c(=O)c2cc(CNC(=O)Cn3c(-c4cccc(N)c4)c(Cl)nc(NC4CCC4)c3=O)ccc12 | > 30 µM | > 30 µM | > 30 µM |  |
| NC1=NCCSc2cc(CNC(=O)Cn3c(-c4cccc(N)c4)c(Cl)nc(NC4CCC4)c3=O)ccc21 | > 30 µM | > 30 µM | > 30 µM | > 30 µM |
| N=C(N)c1c(F)c(F)c(CNC(=O)Cn2c(-c3cccc(N)c3)c(Cl)nc(NC3CCC3)c2=O)c(F)c1F | > 30 µM | 5.48 µM | > 100 µM |  |
| N=C(N)c1ccc(CNC(=O)Cn2c(-c3cccc(N)c3)c(Cl)nc(NC3CCC3)c2=O)c(F)c1 | 0.05 µM | 0.04 µM |  | > 30 µM |
| N=C(N)c1c(O)c(F)c(CNC(=O)Cn2c(-c3cccc(N)c3)c(Cl)nc(NC3CCC3)c2=O)c(F)c1F | > 100 µM | 0.11 µM | > 100 µM |  |
| N=C(N)c1ccc(C(=O)NCCn2c(-c3cccc(N)c3)c(Cl)nc(NC3CCC3)c2=O)cc1 | > 30 µM |  |  |  |
| Nc1cccc(-c2c(Cl)nc(NC3CCC3)c(=O)n2CC(=O)NCc2ccnc(N)n2)c1 | > 30 µM | > 30 µM | > 30 µM |  |
| N=C(N)c1ccc(S(=O)(=O)NCCn2c(-c3cccc(N)c3)c(Cl)nc(NC3CCC3)c2=O)cc1 | > 30 µM | 30 µM | > 30 µM | 9.1 µM |
| Nc1cccc(-c2c(Cl)nc(NC3CCC3)c(=O)n2CC(=O)NCCc2cnc[nH]2)c1 | > 30 µM | > 30 µM | > 30 µM | > 30 µM |
| Nc1cccc(-c2c(Cl)nc(NC3CCC3)c(=O)n2CC(=O)NCc2ccc3c(N)nsc3c2)c1 | > 30 µM |  |  |  |
